Data on 5 molecules can be found in patent US20250018014A1, “METHOD FOR TREATING AND/OR PREVENTING REGNASE-1-RELATED DISEASE” (OSAKA UNIVERSITY, priority 2018, published 2025).

Like-named read-outs stand apart in the source and are kept apart here. Residues, ends and D or L forms follow the SMILES beside them.

For test [1], the target named is T1, FL_Reg1 (full-length human Regnase-1) phosphorylation by IKKβ (Homo sapiens, UniProt Q5D1E8).
T1 construct: made in house; host or cells: Expi293 cells
T1 sequence (Q5D1E8 1-599): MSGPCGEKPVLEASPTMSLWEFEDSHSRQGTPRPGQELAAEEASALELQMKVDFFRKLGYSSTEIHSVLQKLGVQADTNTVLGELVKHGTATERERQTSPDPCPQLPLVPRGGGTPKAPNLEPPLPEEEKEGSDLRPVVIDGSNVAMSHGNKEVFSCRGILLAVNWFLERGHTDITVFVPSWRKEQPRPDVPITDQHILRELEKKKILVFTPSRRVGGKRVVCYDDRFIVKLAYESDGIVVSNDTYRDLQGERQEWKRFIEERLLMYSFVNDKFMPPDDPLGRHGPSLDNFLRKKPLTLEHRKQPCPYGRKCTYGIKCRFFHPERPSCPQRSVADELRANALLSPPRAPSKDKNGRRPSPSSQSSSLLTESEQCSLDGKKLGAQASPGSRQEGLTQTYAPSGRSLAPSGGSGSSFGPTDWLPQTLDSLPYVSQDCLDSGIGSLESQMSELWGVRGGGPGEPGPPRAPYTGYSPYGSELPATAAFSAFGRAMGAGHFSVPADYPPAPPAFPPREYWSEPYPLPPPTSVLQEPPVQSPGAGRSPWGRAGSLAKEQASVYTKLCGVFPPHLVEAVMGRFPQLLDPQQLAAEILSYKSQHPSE
Description: Regnase-1 phosphorylation inhibition by compounds (AlphaScreen), IKKβ, full-length Regnase-1. Type of test: biochemical. An outline of the steps: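 FLAG/BirA-tagged human Regnase-1 constructs (full-length, 1–546 or 301–599), expressed in Expi293 cells, were used at 2 nM with compound and phosphorylated by IKKβ or TBK1 with 10 μM ATP, DTT, vanadate and MnCl2 for 2 h at room temperature. Phospho-Regnase-1 was read by AlphaScreen; IC50 came from % inhibition curves normalised to DMSO and Regnase-1-alone signals.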

Test [2] deals with T2, binding between TBK1 and full-length Regnase-1 (FL_Reg1) (Homo sapiens, UniProt Q5D1E8).
T2 construct: made in house; host or cells: Expi293 cells
T2 sequence (Q5D1E8 1-599): T1 sequence (Q5D1E8 1-599)
Description: Inhibition of kinase-Regnase-1 binding by the compounds (AlphaScreen), TBK1. An outline of the steps:
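Read-out was AlphaScreen luminescence using anti-FLAG acceptor and glutathione donor beads, with Regnase-1 alone set as 100% and DMSO as 0% inhibition to fit IC50. Compound was premixed with 2.5 nM full-length human Regnase-1 (Expi293-expressed, FLAG/BirA-tagged). 2.5 nM TBK1 or IKKβ was then added for 2 h at room temperature.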

The mark [3] stands for this setting: Table 14, phosphorylation by IKKβ, read-out: Phosphorylation inhibition FL_Reg1, 50% inhibition concentration (IKKβ).
The mark [4] stands for this setting: Table 13, binding between TBK1 and Regnase-1, read-out: Binding inhibition FL_Reg1, 50% inhibition concentration (TBK1).

As for `CC[C@H](C)[C@@H]1NC(=O)[C@H](CC(N)=O)NC(=O)[C@H](Cc2ccc(O)cc2)NC(=O)[C@H](Cc2c[nH]c3ccccc23)NC(=O)[C@H](C)NC(=O)[C@H](CC(N)=O)NC(=O)[C@H](CO)NC(=O)[C@H](Cc2c[nH]cn2)NC(=O)[C@H](C)N(C)C(=O)C[C@@H](C(=O)N2CCCC2)NC(=O)[C@H](Cc2c[nH]c3ccccc23)NC1=O` [PP5] (HELM PEPTIDE1{[meA].H.S.N.A.W.Y.N.I.W.D.[C1CCN([*:1])C1]}$PEPTIDE1,PEPTIDE1,1:R1-11:R3$$$V2.0), the IC50 in test [1] (Table 11, 2 nM Regnase-1, AlphaScreen, read-out: 50% inhibition concentration, Regnase-1 phosphorylation, FL_Reg1, IKKβ) was 23.6 µM; in test [2] (Table 12, 2.5 nM Regnase-1, 2.5 nM TBK1, AlphaScreen, read-out: 50% inhibition concentration, binding between Regnase-1 and TBK1, FL_Reg1), 11.5 µM.

Turning to `CC[C@H](C)[C@@H]1NC(=O)[C@H](CCCCN)NC(=O)[C@H](Cc2ccc(O)cc2)NC(=O)[C@H](Cc2c[nH]c3ccccc23)NC(=O)[C@H](CO)NC(=O)[C@H](CC(N)=O)NC(=O)[C@H](C)N(C)C(=O)C[C@@H](C(=O)N2CCCC2)NC(=O)[C@H](CC(C)C)NC(=O)CNC(=O)[C@H](Cc2c[nH]c3ccccc23)NC1=O` [PP21] (HELM PEPTIDE1{[meA].N.S.W.Y.K.I.W.G.L.D.[C1CCN([*:1])C1]}$PEPTIDE1,PEPTIDE1,1:R1-11:R3$$$V2.0), the IC50 in test [1] (setting [3]) worked out at 19.6 µM; in test [2] (setting [4]) it was 5.6 µM.

With `CC[C@H](C)[C@@H]1NC(=O)[C@H](CCCCN)NC(=O)[C@H](Cc2ccc(O)cc2)NC(=O)[C@H](Cc2ccccc2)NC(=O)[C@H](C(C)C)NC(=O)[C@H](C)N(C)C(=O)C[C@@H](C(=O)N2CCCC2)NC(=O)[C@H](Cc2c[nH]c3ccccc23)NC(=O)[C@H](CC(N)=O)NC(=O)[C@H](Cc2ccc(O)cc2)NC(=O)[C@H](Cc2c[nH]c3ccccc23)NC1=O` [PP19] (HELM PEPTIDE1{[meA].V.F.Y.K.I.W.Y.N.W.D.[C1CCN([*:1])C1]}$PEPTIDE1,PEPTIDE1,1:R1-11:R3$$$V2.0), the figures for the IC50 in test [1] (setting [3]) and in test [2] (setting [4]) were 5.4 µM and 2.4 µM, respectively.

Regarding `CC[C@H](C)[C@@H]1NC(=O)[C@H](CC(=O)O)NC(=O)[C@H](C)N(C)C(=O)C[C@@H](C(=O)N2CCCC2)NC(=O)[C@H](Cc2c[nH]c3ccccc23)NC(=O)[C@H](CC(=O)O)NC(=O)[C@H](Cc2c[nH]c3ccccc23)NC(=O)[C@H](Cc2ccc(O)cc2)NC(=O)[C@H](CC(=O)O)NC(=O)[C@H](Cc2ccccc2)NC(=O)[C@H](Cc2c[nH]c3ccccc23)NC1=O` [PP17] (HELM PEPTIDE1{[meA].D.I.W.F.D.Y.W.D.W.D.[C1CCN([*:1])C1]}$PEPTIDE1,PEPTIDE1,1:R1-11:R3$$$V2.0), the values for the IC50 in test [1] (setting [3]) and in test [2] (setting [4]) were 0.5 µM and less than 0.06 µM, respectively.

With `CC[C@H](C)[C@@H]1NC(=O)[C@H](CCCCN)NC(=O)[C@H](Cc2ccc(O)cc2)NC(=O)[C@H](Cc2c[nH]c3ccccc23)NC(=O)[C@H](CO)NC(=O)[C@H](CO)NC(=O)[C@H]([C@@H](C)O)NC(=O)[C@@H]2CCCN2C(=O)[C@@H](C)N(C)C(=O)C[C@@H](C(=O)N2CCCC2)NC(=O)[C@H](Cc2c[nH]c3ccccc23)NC1=O` [PP23] (HELM PEPTIDE1{[C[C@H](C(=O)[*:2])N(C)[*:1]].P.T.S.S.W.Y.K.I.W.D.[C1CCN([*:1])C1]}$PEPTIDE1,PEPTIDE1,1:R1-11:R3$$$V2.0), the figures for the IC50 in test [1] (setting [3]) and in test [2] (setting [4]) were 25.6 µM and 9.2 µM, respectively.
